Experimental data published in PubChem BioAssay AID1745844 (Carcinogenic Potency Database (CPDB), 2022).

System: rodent lifetime carcinogenesis bioassay, tumor incidence TD50
Experiment: chronic cancer bioassays in animals – CPDB, compiled studies (AID 1745844)

Question: With `Cc1cnc2ccc3c(nc(N)n3C)c2n1` as the compound, how does the TD50 (mouse, strain CDF1, females, in feed, site: all sites, lesion: lymphoma and leukemia, combined, dosed 84 weeks, study length 84 weeks) read?
Answer: 6820 mg/kg/day

Question: What about the TD50 (mouse, strain CDF1, females, in feed, site: liver, lesion: hepatocellular adenoma, dosed 84 weeks, study length 84 weeks) of the same compound?
Answer: 14.2 mg/kg/day

Question: And the TD50 (mouse, strain CDF1, females, in feed, site: liver, lesion: hepatocellular carcinoma, dosed 84 weeks, study length 84 weeks)?
Answer: 27.8 mg/kg/day

Question: And the TD50 (mouse, strain CDF1, females, in feed, site: liver, lesion: several types, types named in the paper, dosed 84 weeks, study length 84 weeks)?
Answer: 14.2 mg/kg/day

Question: What about the TD50 (mouse, strain CDF1, females, in feed, site: lung, lesion: adenocarcinoma, dosed 84 weeks, study length 84 weeks) of the same compound?
Answer: 257 mg/kg/day

Question: What about the TD50 (mouse, strain CDF1, females, in feed, site: lung, lesion: adenoma, dosed 84 weeks, study length 84 weeks) of the same compound?
Answer: 143 mg/kg/day

Question: What about the TD50 (mouse, strain CDF1, females, in feed, site: lung, lesion: several types, types named in the paper, dosed 84 weeks, study length 84 weeks) of the same compound?
Answer: 77.2 mg/kg/day

Question: And the TD50 (mouse, strain CDF1, males, in feed, site: all sites, lesion: lymphoma and leukemia, combined, dosed 84 weeks, study length 84 weeks)?
Answer: 109 mg/kg/day

Question: What about the TD50 (mouse, strain CDF1, males, in feed, site: liver, lesion: hepatocellular adenoma, dosed 84 weeks, study length 84 weeks) of the same compound?
Answer: 86.9 mg/kg/day

Question: And the TD50 (mouse, strain CDF1, males, in feed, site: liver, lesion: hepatocellular carcinoma, dosed 84 weeks, study length 84 weeks)?
Answer: 102 mg/kg/day

Question: What about the TD50 (mouse, strain CDF1, males, in feed, site: liver, lesion: several types, types named in the paper, dosed 84 weeks, study length 84 weeks) of the same compound?
Answer: 83.8 mg/kg/day

Question: What about the TD50 (mouse, strain CDF1, males, in feed, site: lung, lesion: adenocarcinoma, dosed 84 weeks, study length 84 weeks) of the same compound?
Answer: 236 mg/kg/day

Question: And the TD50 (mouse, strain CDF1, males, in feed, site: lung, lesion: adenoma, dosed 84 weeks, study length 84 weeks)?
Answer: 262 mg/kg/day

Question: What about the TD50 (mouse, strain CDF1, males, in feed, site: lung, lesion: several types, types named in the paper, dosed 84 weeks, study length 84 weeks) of the same compound?
Answer: 134 mg/kg/day

Question: What about the TD50 (rat, strain F344/DuCrj, females, in feed, site: Zymbal's gland, lesion: squamous-cell carcinoma, dosed 61 weeks, study length 61 weeks) of the same compound?
Answer: 6.31 mg/kg/day

Question: And the TD50 (rat, strain F344/DuCrj, females, in feed, site: clitoral gland, lesion: squamous-cell carcinoma, dosed 61 weeks, study length 61 weeks)?
Answer: 4.72 mg/kg/day

Question: What about the TD50 (rat, strain F344/DuCrj, females, in feed, site: liver, lesion: neoplastic nodule, dosed 61 weeks, study length 61 weeks) of the same compound?
Answer: 6.31 mg/kg/day

Question: And the TD50 (rat, strain F344/DuCrj, females, in feed, site: skin, lesion: squamous-cell carcinoma, dosed 61 weeks, study length 61 weeks)?
Answer: 87.2 mg/kg/day

Question: And the TD50 (rat, strain F344/DuCrj, males, in feed, site: Zymbal's gland, lesion: sebaceous adenoma, dosed 56 weeks, study length 56 weeks)?
Answer: 38.9 mg/kg/day

Question: What about the TD50 (rat, strain F344/DuCrj, males, in feed, site: Zymbal's gland, lesion: several types, types named in the paper, dosed 56 weeks, study length 56 weeks) of the same compound?
Answer: 4.91 mg/kg/day

Question: What about the TD50 (rat, strain F344/DuCrj, males, in feed, site: Zymbal's gland, lesion: several types, types named in the paper, dosed 61 weeks, study length 61 weeks) of the same compound?
Answer: 2.72 mg/kg/day

Question: What about the TD50 (rat, strain F344/DuCrj, males, in feed, site: Zymbal's gland, lesion: squamous-cell carcinoma, dosed 56 weeks, study length 56 weeks) of the same compound?
Answer: 8.6 mg/kg/day

Question: And the TD50 (rat, strain F344/DuCrj, males, in feed, site: Zymbal's gland, lesion: squamous-cell carcinoma, dosed 61 weeks, study length 61 weeks)?
Answer: 3.59 mg/kg/day

Question: And the TD50 (rat, strain F344/DuCrj, males, in feed, site: Zymbal's gland, lesion: squamous-cell papilloma, dosed 56 weeks, study length 56 weeks)?
Answer: 29.1 mg/kg/day

Question: What about the TD50 (rat, strain F344/DuCrj, males, in feed, site: Zymbal's gland, lesion: squamous-cell papilloma, dosed 61 weeks, study length 61 weeks) of the same compound?
Answer: 35.8 mg/kg/day

Question: What about the TD50 (rat, strain F344/DuCrj, males, in feed, site: liver, lesion: hepatocellular adenoma, dosed 56 weeks, study length 56 weeks) of the same compound?
Answer: 3.15 mg/kg/day

Question: What about the TD50 (rat, strain F344/DuCrj, males, in feed, site: liver, lesion: hepatocellular carcinoma, dosed 56 weeks, study length 56 weeks) of the same compound?
Answer: 2.91 mg/kg/day

Question: And the TD50 (rat, strain F344/DuCrj, males, in feed, site: liver, lesion: hepatocellular carcinoma, dosed 61 weeks, study length 61 weeks)?
Answer: 1.26 mg/kg/day

Question: And the TD50 (rat, strain F344/DuCrj, males, in feed, site: liver, lesion: neoplastic nodule, dosed 61 weeks, study length 61 weeks)?
Answer: 73.5 mg/kg/day

Question: And the TD50 (rat, strain F344/DuCrj, males, in feed, site: liver, lesion: several types, types named in the paper, dosed 56 weeks, study length 56 weeks)?
Answer: 1.24 mg/kg/day

Question: What about the carcinogen call (rat, strain F344/DuCrj, males, in feed, site: liver, lesion: several types, types named in the paper, dosed 61 weeks, study length 61 weeks) of the same compound?
Answer: positive

Question: And the TD50 (rat, strain F344/DuCrj, males, in feed, site: skin, lesion: basal-cell carcinoma, dosed 61 weeks, study length 61 weeks)?
Answer: 73.5 mg/kg/day

Question: What about the TD50 (rat, strain F344/DuCrj, males, in feed, site: skin, lesion: sebaceous adenoma, dosed 56 weeks, study length 56 weeks) of the same compound?
Answer: 58.8 mg/kg/day

Question: And the TD50 (rat, strain F344/DuCrj, males, in feed, site: skin, lesion: several types, types named in the paper, dosed 56 weeks, study length 56 weeks)?
Answer: 12 mg/kg/day

Question: What about the TD50 (rat, strain F344/DuCrj, males, in feed, site: skin, lesion: several types, types named in the paper, dosed 61 weeks, study length 61 weeks) of the same compound?
Answer: 8.76 mg/kg/day

Question: And the TD50 (rat, strain F344/DuCrj, males, in feed, site: skin, lesion: squamous-cell carcinoma, dosed 56 weeks, study length 56 weeks)?
Answer: 59.2 mg/kg/day

Question: What about the TD50 (rat, strain F344/DuCrj, males, in feed, site: skin, lesion: squamous-cell carcinoma, dosed 61 weeks, study length 61 weeks) of the same compound?
Answer: 13.1 mg/kg/day

Question: And the TD50 (rat, strain F344/DuCrj, males, in feed, site: skin, lesion: squamous-cell papilloma, dosed 56 weeks, study length 56 weeks)?
Answer: 59.2 mg/kg/day

Question: What about the TD50 (rat, strain F344/DuCrj, males, in feed, site: skin, lesion: squamous-cell papilloma, dosed 61 weeks, study length 61 weeks) of the same compound?
Answer: 73.5 mg/kg/day

Question: What about the TD50 (rat, strain F344/DuCrj, males, in feed, site: skin, lesion: trichoepithelioma, dosed 56 weeks, study length 56 weeks) of the same compound?
Answer: 38.9 mg/kg/day

Question: Which results are given for `NC(=O)N(CCF)N=O`?
Answer: TD50 (rat, strain Fischer 344, males, by gavage, site: forestomach, lesion: one or several types, types not named, dosed 40 weeks, study length 104 weeks): 0.125 mg/kg/day; TD50 (rat, strain Fischer 344, males, by gavage, site: lung, lesion: several types, types named in the paper, dosed 40 weeks, study length 104 weeks): 0.279 mg/kg/day
